Assay results: PubChem BioAssay AID248 (DTP/NCI, 2004)
Several values for one entry are separate records, joined by “and”; a condition that tells them apart may be missing. Identical values can stand only once. Toxic doses and inconclusive results are not listed. No stated cut-off is given here; in the data, active means T/C of 150% or more; inactive means T/C below 125%.

System: L1210 leukemia ip in BDF1 mice, survival T/C
Assay: NCI In Vivo Anticancer Drug Screen. Data for tumor model L1210 Leukemia (intraperitoneal) in B6D2F1 (BDF1) mice
Conditions: higher = longer survival
Outline: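 Tumor was transplanted into mice, which were then dosed with test compound or vehicle alone. Survival was recorded for each group, and the treated figure was expressed relative to the control figure.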

[1] = endpoint: mean survival time, dose: 100.0 mg/kg/injection, schedule: Q01DX009 (ip), vehicle: Klucel (hydroxypropylcellulose) (HPC)
[2] = endpoint: mean survival time, dose: 100.0 mg/kg/injection, schedule: Q01DX001 (ip), vehicle: Klucel (hydroxypropylcellulose) (HPC)
[3] = endpoint: mean survival time, dose: 200.0 mg/kg/injection, schedule: Q01DX001 (ip), vehicle: Klucel (hydroxypropylcellulose) (HPC)
[4] = endpoint: mean survival time, dose: 200.0 mg/kg/injection, schedule: Q01DX009 (ip), vehicle: Klucel (hydroxypropylcellulose) (HPC)

Measured: T/C

CNC(=O)Nc1cccc2ccccc12
inactive: endpoint: mean survival time, dose: 100.0 mg/kg/injection, schedule: Q01DX001 (ip), vehicle: carboxymethylcellulose (CMC) 95 % of control | endpoint: mean survival time, dose: 100.0 mg/kg/injection, schedule: Q01DX009 (ip), vehicle: carboxymethylcellulose (CMC) 93 % of control and 89 % of control | endpoint: mean survival time, dose: 100.0 mg/kg/injection, schedule: Q04DX002 (ip), vehicle: carboxymethylcellulose (CMC) 106 % of control | endpoint: mean survival time, dose: 100.0 mg/kg/injection, schedule: Q04DX003 (ip), vehicle: carboxymethylcellulose (CMC) 97 % of control | endpoint: mean survival time, dose: 200.0 mg/kg/injection, schedule: Q01DX001 (ip), vehicle: carboxymethylcellulose (CMC) 101 % of control | endpoint: mean survival time, dose: 200.0 mg/kg/injection, schedule: Q01DX009 (ip), vehicle: carboxymethylcellulose (CMC) 98 % of control and 101 % of control | endpoint: mean survival time, dose: 200.0 mg/kg/injection, schedule: Q04DX002 (ip), vehicle: carboxymethylcellulose (CMC) 100 % of control | endpoint: mean survival time, dose: 200.0 mg/kg/injection, schedule: Q04DX003 (ip), vehicle: carboxymethylcellulose (CMC) 96 % of control | endpoint: mean survival time, dose: 400.0 mg/kg/injection, schedule: Q01DX001 (ip), vehicle: carboxymethylcellulose (CMC) 97 % of control | endpoint: mean survival time, dose: 400.0 mg/kg/injection, schedule: Q01DX009 (ip), vehicle: carboxymethylcellulose (CMC) 93 % of control and 86 % of control | endpoint: mean survival time, dose: 400.0 mg/kg/injection, schedule: Q04DX002 (ip), vehicle: carboxymethylcellulose (CMC) 99 % of control | endpoint: mean survival time, dose: 400.0 mg/kg/injection, schedule: Q04DX003 (ip), vehicle: carboxymethylcellulose (CMC) 97 % of control

COc1ccc2c(c1)N(CCC1CCCCN1C)c1ccccc1S2 (centres undefined)
inactive: endpoint: mean survival time, dose: 3.12 mg/kg/injection, schedule: Q01DX009 (ip), vehicle: saline 108 % of control and 121 % of control | endpoint: mean survival time, dose: 6.25 mg/kg/injection, schedule: Q01DX009 (ip), vehicle: saline 105 % of control and 118 % of control | endpoint: mean survival time, dose: 6.25 mg/kg/injection, schedule: Q04DX003 (ip), vehicle: saline 107 % of control | endpoint: mean survival time, dose: 12.5 mg/kg/injection, schedule: Q01DX009 (ip), vehicle: saline 111 % of control | endpoint: mean survival time, dose: 12.5 mg/kg/injection, schedule: Q04DX003 (ip), vehicle: saline 106 % of control | endpoint: mean survival time, dose: 25.0 mg/kg/injection, schedule: Q01DX009 (ip), vehicle: saline 117 % of control | endpoint: mean survival time, dose: 25.0 mg/kg/injection, schedule: Q04DX003 (ip), vehicle: saline 117 % of control and 122 % of control | endpoint: mean survival time, dose: 50.0 mg/kg/injection, schedule: Q04DX003 (ip), vehicle: saline 114 % of control and 117 % of control

CN(C)CCC(c1ccccc1)c1nc(N)nc(C(CCN(C)C)c2ccccc2)n1 (centres undefined)
inactive: endpoint: mean survival time, dose: 50.0 mg/kg/injection, schedule: Q04DX002 (ip), vehicle: Klucel (hydroxypropylcellulose) (HPC) 102 % of control | [1] 115 % of control | endpoint: mean survival time, dose: 100.0 mg/kg/injection, schedule: Q04DX002 (ip), vehicle: Klucel (hydroxypropylcellulose) (HPC) 105 % of control

Nc1nc[nH]c1-c1n[nH]c(=O)[nH]1
inactive: [2] 108 % of control | [3] 104 % of control

COc1ccc([N+](=O)[O-])cc1NC(=O)Nc1ccc(CCO)cc1
inactive: endpoint: mean survival time, dose: 50.0 mg/kg/injection, schedule: Q01DX009 (ip), vehicle: Klucel (hydroxypropylcellulose) (HPC) 92 % of control | [1] 105 % of control | [4] 97 % of control

CC1=CC(=O)CC(=O)O1
inactive: [2] 103 % of control | [1] 96 % of control | endpoint: mean survival time, dose: 100.0 mg/kg/injection, schedule: Q04DX003 (ip), vehicle: Klucel (hydroxypropylcellulose) (HPC) 97 % of control | [3] 108 % of control | [4] 94 % of control | endpoint: mean survival time, dose: 200.0 mg/kg/injection, schedule: Q04DX003 (ip), vehicle: Klucel (hydroxypropylcellulose) (HPC) 101 % of control | endpoint: mean survival time, dose: 400.0 mg/kg/injection, schedule: Q01DX001 (ip), vehicle: Klucel (hydroxypropylcellulose) (HPC) 103 % of control | endpoint: mean survival time, dose: 400.0 mg/kg/injection, schedule: Q04DX003 (ip), vehicle: Klucel (hydroxypropylcellulose) (HPC) 95 % of control

CCN(CC)c1ccc(NCS(=O)(=O)O)cc1
inactive: endpoint: mean survival time, dose: 50.0 mg/kg/injection, schedule: Q01DX009 (ip), vehicle: saline sonified 103 % of control | endpoint: mean survival time, dose: 100.0 mg/kg/injection, schedule: Q01DX009 (ip), vehicle: saline sonified 101 % of control | endpoint: mean survival time, dose: 100.0 mg/kg/injection, schedule: Q04DX003 (ip), vehicle: saline 110 % of control

CCN(CC)c1ccc2[nH]c3c(C(N)=O)cc(=O)c(=O)c=3oc2c1
inactive: endpoint: median survival time, dose: 12.5 mg/kg/injection, schedule: Q01DX009 (ip), vehicle: saline with Tween-80 101 % of control | endpoint: median survival time, dose: 25.0 mg/kg/injection, schedule: Q01DX009 (ip), vehicle: saline with Tween-80 120 % of control | endpoint: median survival time, dose: 50.0 mg/kg/injection, schedule: Q01DX009 (ip), vehicle: saline with Tween-80 113 % of control | endpoint: median survival time, dose: 100.0 mg/kg/injection, schedule: Q01DX009 (ip), vehicle: saline with Tween-80 111 % of control | endpoint: median survival time, dose: 200.0 mg/kg/injection, schedule: Q01DX009 (ip), vehicle: saline with Tween-80 98 % of control
